For data set [1] the following is noted: the molecule shown is the open-chain precursor; 33-membered ring; resin; 60 steps.
Data set [2] in a line: Circular dichroism, α-helicity. Format: physicochemical. The note with it: CD, TFE/water (1:1), 50 μM peptide, 25 °C, 1 mm cuvette, calculated from [θ]222. The procedure:
The linear and stapled peptides were dissolved in the trifluoroethanol (TFE) and water (1 : 1) to a final concentration of 50 μM, respectively. The CD spectra were obtained with 1 mm quartz cuvette on Jasco-815 spectropolarimeter at 25 °C. The measurement parameters were set up as follows: wavelength, 185–260 nm; step resolution, 0.5 nm; speed, 20 nm min^−1. All spectra were converted to a uniform scale of molar ellipticity after background subtraction. The curves were smoothed using standard parameters. The ellipticity in the acquired CD spectra was converted to the molar ellipticity using the equation: [θ] = θ/(10 × c × l), where, [θ] is the Molar ellipticity (deg cm^2. d mol^−1), θ is the observed ellipticity corrected for the buffer at a given wavelength (m deg), c is the molar concentration and l is the path length (cm). The helicity of each peptide was calculated as described in a literature based on the ellipticity of the peptide's spectrum at 222 nm and the number of amino acids in the peptide sequence.
Circular dichroism (CD) spectroscopy was used to investigate the secondary structures of the stapled and template peptides to probe structural changes induced by conformation constraint in a membrane-like milieu, including […] (TFE) and water (1 : 1). […] (Table 1, ESI ^†).

The test system of data set [3] is human normal liver cell LO-2. The data set is described as follows: MTT toxicity against normal cells, LO-2. The class given is cell-based. The note with it: 96 h. The procedure: (§1) Anti-tumor activity was evaluated by the standard MTT assay with a slight modification measuring the median inhibitory concentration (IC50) values.[35] HCT-116 cells, HepG2 cells and A549 cells were plated in triplicate wells into a 96-well plate at 5 × 10^3/well and cultured routinely for 24 h. Cells were incubated with increasing concentrations of hymenochirin-1B and its analogs (0.1–30 μM) and continued to culture with DMEM plus 10% FBS at 37 °C and 5% CO2. After being incubated for 96 h, the absorbance A value was determined by MTT at 540 nm. The untreated HCT-116 cells, HepG2 cells and A549 cells were used as control. Each experiment was performed in duplicate. The inhibitory rate was calculated according to the following formula: inhibitory rate = (a value of the control group − a value of the study group)/a value of the control group × 100%.
(§2) To further research the selectivity of these peptides towards cancer cells over normal cells. The growth-inhibitory activities of peptides were evaluated using the 3-(4,5-dimethylthiazol-2-yl)-2,5-diphenyltetrazolium bromide (MTT) assay against three normal cells,[35] namely, human normal liver cell LO-2, human normal Lung cell BEAS-2 and human normal kidney cell 293 T (Table S2 ^†). The experiments procedure was performed just same as growth inhibition of the peptides against tumor cells. […] It might be due to the higher averaged hydrophobicity produced by six or nine additional methylene and two olefinic carbons to the peptide to increase toxicity to human normal cells. This situation may be resolved through the addition of polar character and glycosylation into the sequence to decrease the averaged hydrophobicity to improve the selectivity of these peptides towards cancer cells over normal cells. These modifications of these peptides are under way, and the present study was focused on the improved anti-tumor activity of template peptide hymenochirin-1B.

Data set [4] has as its system human normal Lung cell BEAS-2. The data set is described as follows: MTT toxicity against normal cells, BEAS-2B. The class given is cell-based. The note with it: 96 h. The procedure:
as §1, §2

The test system of data set [5] is human normal kidney cell 293 T. Kind of data set: MTT toxicity against normal cells, 293T. The class given is cell-based. The note with it: 96 h. The procedure: as §1, §2
Data set [6] can be described thus: Protease resistance (trypsin degradation, HPLC). The class given is in vitro ADME. The note with it: trypsin solution (5 ng/µL), room temperature, HPLC 214 nm, duplicate; for half-life at 0.1 mM: trypsin 5 ng/μL in 50 mM PBS with 2 mM CaCl2, pH 7.4 (method: trypsin buffer pH 8), peptide 0.1 mM final, sampled 0–3.5 h, HCl quench, read-out: half-life (t1/2) toward trypsin degradation (converted). The procedure: The peptides were dissolved in PBS buffer solutions (50 mM, pH = 7.4) to a final concentration of 1 mM, respectively. Trypsin was dissolved in PBS buffer (50 mM, containing 2 mM of CaCl2, pH = 8) to a final concentration of 5 ng μL^−1. Then the peptide solutions (100 μL) were incubated with trypsin solution (1 mL) at room temperature. 100 μL of digestion mixture was taken at the 0, 0.5, 1.0, 1.5, 2.0, 2.5, 3.0, and 3.5 h marks, then quenched with 20 μL of hydrochloric acid (1 M). The solution of the trypsin peptide fragments was monitored by HPLC at different time to determine the fraction of protease degradation at 214 nm. Each experiment was performed in duplicate.
To assess the protease stability of the stapled peptides, we measured their susceptibility toward trypsin degradation at room temperature in PBS buffer (pH 7.4) with monitored by HPLC. Trypsin is a protease that predominantly cleaves at the carboxyl terminus of positive charge amino acids, such as arginine and lysine. […] Especially, only about 49% of bicyclic stapled peptide H-10 was cleaved after 3.5 h (Fig. 3 and S4 ^†).
Fig. 3 Proteolytic stability of peptides incubated in trypsin solution (5 ng μL^−1 in 50 mM PBS buffer, pH = 7.4) at a final concentration of 0.1 mM. […] The percent of residual peptide was monitored by Analytic HPLC. All experiments were repeated at least three times. H-0 represents hymenochirin-1B.

This is an account of results in PMC9081086, “Stapling strategy enables improvement of antitumor activity and proteolytic stability of host-defense peptide hymenochirin-1B” (RSC Advances, 2018).

Positions of bridges follow the written chain, without caps; N, C: chain ends. Non-standard residues stand in square brackets, D forms with d. Residues, ends and D or L forms follow the SMILES beside them. S5 = C=CCCC[C@](C)(N)C(=O)O

Consider `C=CCCCCCC[C@@](C)(NC(=O)[C@H](CCCCNC(=O)OC(C)(C)C)NC(=O)[C@H](CC(C)C)NC(=O)[C@@H](NC(=O)[C@H](CCCCNC(=O)OC(C)(C)C)NC(=O)[C@H](CCCCNC(=O)OC(C)(C)C)NC(=O)[C@H](CC(C)C)NC(=O)[C@H](CC(=O)NC(c1ccccc1)(c1ccccc1)c1ccccc1)NC(=O)[C@H](CC(=O)OC(C)(C)C)NC(=O)[C@H](CCCCNC(=O)OC(C)(C)C)NC(=O)[C@@H](NC(=O)[C@H](CCC(=O)OC(C)(C)C)NC(=O)[C@@H]1CCCN1C(=O)[C@H](COC(C)(C)C)NC(=O)[C@H](CC(C)C)NC(=O)[C@H](CCCCNC(=O)OC(C)(C)C)NC(=O)[C@@H](NC(=O)OCC1c2ccccc2-c2ccccc21)[C@@H](C)CC)[C@@H](C)OC(C)(C)C)C(C)C)C(=O)N[C@@H](C)C(=O)N[C@H](C(=O)N[C@@H](CCCCNC(=O)OC(C)(C)C)C(=O)NCC(=O)N[C@@H](C)C(=O)N[C@H](C(=O)N[C@@](C)(CCCC=C)C(=O)N[C@H](C(=O)N[C@@H](C)C(=O)N[C@@H](CCCCNC(=O)OC(C)(C)C)C(=O)N[C@@H](CCSC)C(=O)N[C@H](C(N)=O)C(C)C)C(C)C)[C@@H](C)CC)[C@@H](C)CC`, for which the ring closure, overall yield in data set [1] was determined as 6.72%.
For `CC[C@H](C)[C@H](N)C(=O)N[C@@H](CCCCN)C(=O)N[C@@H](CC(C)C)C(=O)N[C@@H](CO)C(=O)N1CCC[C@H]1C(=O)N[C@@]1(C)CCCC=CCCC[C@@](C)(C(=O)N[C@@H](CC(C)C)C(=O)N[C@@H](CCCCN)C(=O)N[C@@H](CCCCN)C(=O)N[C@H](C(=O)N[C@@H](CC(C)C)C(=O)N[C@@H](CCCCN)C(=O)NCC(=O)N[C@@]2(C)CCCC=CCCC[C@@](C)(C(=O)N[C@H](C(=O)N[C@@H](C)C(=O)N[C@H](C(=O)N[C@@H](C)C(=O)N[C@@H](CCCCN)C(=O)N[C@@H](CCSC)C(=O)N[C@H](C(N)=O)C(C)C)C(C)C)[C@@H](C)CC)NC(=O)CNC(=O)[C@H](CCCCN)NC(=O)[C@H]([C@@H](C)CC)NC2=O)C(C)C)NC(=O)[C@H](CC(=O)O)NC(=O)[C@H](CCCCN)NC(=O)[C@H]([C@@H](C)O)NC1=O` [H-10] (H-IKLSP[S5]TKD[S5]LKKVLKG[S5]IKG[S5]IAVAKMV-NH2; staple 6-10, 18-22), the “Helicity (%)” value in data set [2] is reported as 73.3%. Also, the “IC50 (μM) LO-2, toxicity against normal cells” value (“IC50 (μM) LO-2, toxicity” below) in data set [3] was 8.78 ± 0.32 µM. Moreover, the “IC50 (μM) BEAS-2B, toxicity against normal cells” value (from here on “IC50 (μM) BEAS-2B, toxicity”) in data set [4] turned out to be 5.52 ± 0.42 µM. In addition, in data set [5], the “IC50 (μM) 293T, toxicity against normal cells” value (from here on “IC50 (μM) 293T, toxicity”) came to 10.42 ± 0.25 µM. The metabolised at 3.5 h, 0.1 mM in data set [6] (trypsin 5 ng/μL in 50 mM PBS, pH 7.4, peptide 0.1 mM final, 3.5 h, read-out: peptide cleaved by trypsin after 3.5 h) is ~49%.
Regarding `CC[C@H](C)[C@H](N)C(=O)N[C@@H](CCCCN)C(=O)N[C@@H](CC(C)C)C(=O)N[C@@H](CO)C(=O)N1CCC[C@H]1C(=O)N[C@@H](CCC(=O)O)C(=O)N[C@H](C(=O)N[C@@H](CCCCN)C(=O)N[C@@H](CC(=O)O)C(=O)N[C@@H](CC(N)=O)C(=O)N[C@@H](CC(C)C)C(=O)N[C@@H](CCCCN)C(=O)N[C@@H](CCCCN)C(=O)N[C@H](C(=O)N[C@@H](CC(C)C)C(=O)N[C@@H](CCCCN)C(=O)NCC(=O)N[C@@H](C)C(=O)N[C@H](C(=O)N[C@@H](CCCCN)C(=O)NCC(=O)N[C@@H](C)C(=O)N[C@H](C(=O)N[C@@H](C)C(=O)N[C@H](C(=O)N[C@@H](C)C(=O)N[C@@H](CCCCN)C(=O)N[C@@H](CCSC)C(=O)N[C@H](C(N)=O)C(C)C)C(C)C)[C@@H](C)CC)[C@@H](C)CC)C(C)C)[C@@H](C)O` [Hymenochirin-1B] (H-IKLSPETKDNLKKVLKGAIKGAIAVAKMV-NH2), the “Helicity (%)” value in data set [2] is reported as 48.7%. Further, in data set [3], the “IC50 (μM) LO-2, toxicity” value was 23.98 ± 0.32 µM. Besides, the “IC50 (μM) BEAS-2B, toxicity” value in data set [4] is 9.24 ± 0.25 µM. Also, in data set [5], the “IC50 (μM) 293T, toxicity” value worked out at 11.12 ± 0.35 µM. Besides, the half-life at 0.1 mM in data set [6] was 16.8 min.
On to `CC[C@H](C)[C@H](N)C(=O)N[C@@H](CCCCN)C(=O)N[C@@H](CC(C)C)C(=O)N[C@@H](CO)C(=O)N1CCC[C@H]1C(=O)N[C@@H](CCC(=O)O)C(=O)N[C@H](C(=O)N[C@@H](CCCCN)C(=O)N[C@@H](CC(=O)O)C(=O)N[C@@H](CC(N)=O)C(=O)N[C@@H](CC(C)C)C(=O)N[C@@H](CCCCN)C(=O)N[C@@H](CCCCN)C(=O)N[C@H](C(=O)N[C@@H](CC(C)C)C(=O)N[C@@H](CCCCN)C(=O)NCC(=O)N[C@@]1(C)CCCC=CCCC[C@@](C)(C(=O)N[C@H](C(=O)N[C@@H](C)C(=O)N[C@H](C(=O)N[C@@H](C)C(=O)N[C@@H](CCCCN)C(=O)N[C@@H](CCSC)C(=O)N[C@H](C(N)=O)C(C)C)C(C)C)[C@@H](C)CC)NC(=O)CNC(=O)[C@H](CCCCN)NC(=O)[C@H]([C@@H](C)CC)NC1=O)C(C)C)[C@@H](C)O` [H-5] (H-IKLSPETKDNLKKVLKG[S5]IKG[S5]IAVAKMV-NH2; staple 18-22), for which, in data set [2], the “Helicity (%)” value is 69.2%. The “IC50 (μM) LO-2, toxicity” value in data set [3] was found to be 3.57 ± 0.52 µM. Also, the “IC50 (μM) BEAS-2B, toxicity” value in data set [4] was determined as 5.76 ± 0.32 µM. Moreover, the “IC50 (μM) 293T, toxicity” value in data set [5] came out at 4.70 ± 0.32 µM. Moreover, the half-life at 0.1 mM in data set [6] was 168 min.
Taken in the same sequence, the figures for `CC[C@H](C)[C@H](N)C(=O)N[C@@H](CCCCN)C(=O)N[C@@H](CC(C)C)C(=O)N[C@@H](CO)C(=O)N1CCC[C@H]1C(=O)N[C@@]1(C)CCCC=CCCC[C@@](C)(C(=O)N[C@@H](CC(C)C)C(=O)N[C@@H](CCCCN)C(=O)N[C@@H](CCCCN)C(=O)N[C@H](C(=O)N[C@@H](CC(C)C)C(=O)N[C@@H](CCCCN)C(=O)NCC(=O)N[C@@H](C)C(=O)N[C@H](C(=O)N[C@@H](CCCCN)C(=O)NCC(=O)N[C@@H](C)C(=O)N[C@H](C(=O)N[C@@H](C)C(=O)N[C@H](C(=O)N[C@@H](C)C(=O)N[C@@H](CCCCN)C(=O)N[C@@H](CCSC)C(=O)N[C@H](C(N)=O)C(C)C)C(C)C)[C@@H](C)CC)[C@@H](C)CC)C(C)C)NC(=O)[C@H](CC(=O)O)NC(=O)[C@H](CCCCN)NC(=O)[C@H]([C@@H](C)O)NC1=O` [H-2] (H-IKLSP[S5]TKD[S5]LKKVLKGAIKGAIAVAKMV-NH2; staple 6-10) were 49.3%, 3.40 ± 0.32 µM, 3.12 ± 0.52 µM, 3.20 ± 0.33 µM and 30 min.
